The test addresses HLA-A*0201 (Homo sapiens, UniProt P04439, D140Y/D185E/D98H/E176V/E277Q/G131W/G231S/I119V/I121R/I166T/I218V/L300P/L318F/N151K/N90K/P208A/P217A/Q86G/Q94H/R138H/R169H/T345S). Briefly: HLA-A*0201 peptide-binding assay.

The source of these data is paper PMC2213507 (The Journal of Experimental Medicine, 2000).

Structures are written as SMILES. Peptide text beside a SMILES is read from it.

Broadly, the IC50 is the point on the concentration scale where inhibition reaches its midpoint.

`CC(C)C[C@H](NC(=O)[C@H](CO)NC(=O)[C@H](CCCNC(=N)N)NC(=O)[C@@H](NC(=O)[C@H](Cc1ccc(O)cc1)NC(=O)[C@H](COP(=O)(O)O)NC(=O)[C@H](CC(=O)O)NC(=O)[C@H](CC(C)C)NC(=O)CN)C(C)C)C(=O)O` [GLDpSYVRSL] (HELM PEPTIDE1{G.L.D.[O=C([C@H](COP(=O)(O)O)N[*:1])[*:2]].Y.V.R.S.L}$$$$V2.0) had an IC50 of 0.058 µM.

As to `CC(C)C[C@H](NC(=O)[C@H](CO)NC(=O)[C@H](CCCNC(=N)N)NC(=O)[C@@H](NC(=O)[C@H](Cc1ccc(O)cc1)NC(=O)[C@@H](NC(=O)[C@H](CC(=O)O)NC(=O)[C@H](CC(C)C)NC(=O)CN)[C@@H](C)OP(=O)(O)O)C(C)C)C(=O)O` [GLDpTYVRSL] (HELM PEPTIDE1{G.L.D.[C[C@@H](OP(=O)(O)O)[C@H](N[*:1])C(=O)[*:2]].Y.V.R.S.L}$$$$V2.0), the IC50 came to 0.067 µM.

On to `CC(C)C[C@H](NC(=O)[C@H](CO)NC(=O)[C@H](CCCNC(=N)N)NC(=O)[C@@H](NC(=O)[C@H](Cc1ccc(O)cc1)NC(=O)[C@H](Cc1ccc(OP(=O)(O)O)cc1)NC(=O)[C@H](CC(=O)O)NC(=O)[C@H](CC(C)C)NC(=O)CN)C(C)C)C(=O)O` [GLDpYYVRSL] (HELM PEPTIDE1{G.L.D.[O=C([C@H](Cc1ccc(OP(=O)(O)O)cc1)N[*:1])[*:2]].Y.V.R.S.L}$$$$V2.0), for which the IC50 was 0.211 µM.
